Test results reported in patent US20190046649A1, “DELIVERY DEVICE AND USE THEREOF FOR LOADING CELL PLASMA MEMBRANES” (UNIVERSITY OF MARYLAND, BALTIMORE COUNTY, priority 2017, published 2019).
No end group written: not given here.

How the values were obtained:
[1] = tested on: CD8+ T cells with B16F10 tumor cells; experiment: Proliferation of depoted CD8+ T cells with αCD3/28 beads in the presence of immunosuppressive tumor cells; type: cell-based, murine; settings: 3 days coculture with αCD3/28 beads
Procedure: A) Flow cytometry histograms showing CFSE dilution of CD8^+ T-cells after 3-day stimulation with ratios of 1:1 αCD3/CD28 beads and 1:5 B16F10 tumor cells (blue text). T-Cells were cultured with 10 μg/ml of soluble Pam2CSK4 or Pam3CSK4 either alone or in combination with 5 μM of soluble lipo-CpG (solid fill), or depoted with the same respective combinations (tinted fill). B) Quantification of percent of CD8^+ T-cells that divided >5 times compared to undivided CD8^+ T-cells as measured by CF SE dilution from flow cytometry. C) IL-2 production from CD8^+ T-cell supernatents after 3 days of proliferation. n=1 independent experiment.
The proliferative capacity of depoted CD8+ T cells was evaluated after 3 days of coculture with αCD3/28 beads in the presence or absence of immunosuppressive tumor cells.

T-cells = experiment: Insertion (depoting) of TLR2 ligands into cell membranes and intracellular localisation; type: cell-based, murine
Procedure: A) Structure of synthesized lipo-ligand, which are diacyl 18-carbon tails conjugated to: unmethylated CpG oligonucleotide ([…]) (SEQ ID NO: 1), or a poly(ethylene) glycol (PEG) linker plus a melanoma antigen, GP10025-33 (KVPRNQDWL) (SEQ ID NO: 2). B) Schematic of lipo-ligand depoting into cell membrane surface. C-D, CD4+ and CD8+ T-cells are identified by flow cytometry and median fluorescence intensity (MFI) of labeled ligand is determined on each cell subset as a function of time and ligand concentration. C) Fluoroscein (FAM)-labeled lipo-CpG, a TLR9 ligand, depoted into murine splenic immune cells. D) Pam2CSK4, a TLR2 ligand, depoted into murine splenic immune cells. E) MFI of lipo-GP100 is determined by flow cytometry as a function of cell density and depot volume. F-G, Isolated T-cells are depoted by varying depot time or ligand concentration, and quantified as average number of ligand per T-cell by enzyme-linked immunosorbant assay (ELISA) F) Lipo-CpG depoted into isolated T-cells. G) Pam2CSK4 and Pam3CSK4, another TLR2 ligand, respectively depoted into isolated T-cells. H) Average number of each respective ligand per splenic immune cell after 1 hour depot. n=3-5 independent experiments. Data depict m±s.d.
A) Splenic immune cells were depoted with 10 μg/ml of Pam2CSK4 for 1 h. Depoted cells were resting for up to 1 h versus nondepoted cells with addition of 100 ng/ml of soluble Pam2CSK4. Phosphorylated p38 was measured compared to negative controls by western blotting. n=2 independent experiments. Data depict m±s.d. B) Isolated T-cells were depoted with TLR2 ligand and MFI of activation markers, MHCII and CD69, on bystander B-cells were measured after 2-day culture by flow cytometry and normalized to unstimulated B-cells (fold MFI). n=5-6 independent experiments, one-way ANOVA with Kruskal-Wallis test. Data depict m±s.d. C) Splenocytes were cultured in 2 μg/ml of Concanavalin A and 10 ng/ml of IL-7 for 2 days, and isolated T-cells were then TLR2 ligand-depoted for 1 hour. […]

bystander B cells (TLR2) = experiment: TLR2 ligand-depoted T cells co-cultured with bystander B cells, activation markers by flow cytometry; type: cell-based, mouse
Procedure: A) Splenic immune cells were depoted with 10 μg/ml of Pam2CSK4 for 1 h. Depoted cells were resting for up to 1 h versus nondepoted cells with addition of 100 ng/ml of soluble Pam2CSK4. Phosphorylated p38 was measured compared to negative controls by western blotting. n=2 independent experiments. Data depict m±s.d. B) Isolated T-cells were depoted with TLR2 ligand and MFI of activation markers, MHCII and CD69, on bystander B-cells were measured after 2-day culture by flow cytometry and normalized to unstimulated B-cells (fold MFI). n=5-6 independent experiments, one-way ANOVA with Kruskal-Wallis test. Data depict m±s.d. C) Splenocytes were cultured in 2 μg/ml of Concanavalin A and 10 ng/ml of IL-7 for 2 days, and isolated T-cells were then TLR2 ligand-depoted for 1 hour. Depoted T-cells were then resting for 0 h, 3 h, 24 h, or 48 h, before T-cells were chemically fixed and co-cultured for 2 days with CD45.1^+ bystander B-cells. Bystander B-cells were used as a reporter to determine TLR2 ligand surface persistence on depoted T-cells by their fold MFI of MHCII and CD69. n=5 independent experiments. Data depict m±s.d.
A) Pam2CSK4-biotin at indicated concentrations was depoted into CD3+CD8+ or CD3+CD8− T-cells and stained with streptavidin (SAV) PE as determined by flow cytometry. B) Paracrine signaling of resting vs Concanavalin A/IL-7-activated TLR2 ligand-depoted CD8+ T-cells. Activated CD8+ T-cells were isolated from splenocytes cultured in 2 μg/ml of Concanavalin A and 10 ng/ml of IL-7 for 2 days. TLR2 ligand was depoted and processed by CD8+ T-cells for 0 h, 3 h, 6 h, 24 h, or 48 h, before T-cells were chemically fixed and cultured for 2 days with bystander B-cells to determine fold MFI intensity of MHC II, CD69, and CD86 (C).
CD45.1+ B cells were depoted with lipo-CpG, CpG, or nothing. These were cultured alone or 1:1 mixed with bystander (no depot) CD45.1− B cells. B cell activation was shown as fold intensity CD86 measured by flow cytometry after 3 d. B) CD8+ T cells were depoted with Pam2CSK4 or nothing, and then co-cultured 1:1 with bystander CD45.1+ B cells for 3 d. B cell activation was measured by CD86 and compared to a continuous exposure Pam2CSK4 control. […]
After determining that depoting was a robust process, the function of depoted Pam2CSK4 to activate neighboring immune cells was tested. Depoted T cells were co-cultured with responders (B cells) and the expression of activation markers was determined after 2 days of co-culture at a 1:1 T cell:B cell ratio.
In FIG. 11, Pan T cells were isolated from mice and either left alone (blue, red) or depoted with Pam2CSK4 for 1 h (green). […] Expression levels of activation markers were analyzed by flow after 2 days and fluorescence intensity normalized to B cells activated with polyclonal stimulus. […]

CD8+ T cells = experiment: Proliferation of depoted T cells after 3 d stimulation with 1:1 anti-CD3/28 beads (CFSE dilution); type: cell-based, murine; settings: 1:1 beads
Procedure: T-Cells were cultured with 5 μM of soluble lipo-CpG or depoted with lipo-CpG, and CFSE dilution was measured by flow cytometry. B) Quantification of division index of CD4^+ T-cells as measured by CFSE dilution from flow cytometry. n=3 independent experiments, one-way ANOVA with Krustal-Wallis test. *p<0.05 between the unstim condition.
CD45.1+ B cells were depoted with lipo-CpG, CpG, or nothing. These were cultured alone or 1:1 mixed with bystander (no depot) CD45.1− B cells. B cell activation was shown as fold intensity CD86 measured by flow cytometry after 3 d. B) CD8+ T cells were depoted with Pam2CSK4 or nothing, and then co-cultured 1:1 with bystander CD45.1+ B cells for 3 d. B cell activation was measured by CD86 and compared to a continuous exposure Pam2CSK4 control. C) Representative histograms showing CFSE dilution (proliferation) of CD8+ T cells after 3 d stimulation with 1:1 anti-CD3/28 beads. Where indicated, cells were depoted or cultured with continuous soluble lipo-CpG (left) or Pam2CSK4 (right). Bars=median, whiskers=range; n=3.
B cells depoted with lipo-CpG had sustained activation up to 3 d (FIG. 10 A). […] The ability of a surface sensed lipo-Av to activate neighboring cells was also tested, using Pam2CSK4 which engages surface TLR2.

[2] = tested on: resting memory CD4+ T cells; settings: cited from earlier work
cognate CD8+ T-cells = experiment: Antigen presentation by lipo-GP100-depoted B-cells to cognate CD8+ T-cells (T-cell proliferation, CFSE dilution); type: cell-based, murine
Procedure: A) Activated B-cells were isolated from splenocytes and cultured with 1 μg/ml TLR7 ligand R848 and αIgM antibody for 2 days. Resting versus activated B-cells were depoted with lipo-GP100-FAM for 1 hour. Lipo-GP100-FAM and forward scatter fold increase was measured by flow cytometry. B) LipoGP100-depoted resting B-cells presented to and proliferated cognate CD8^+ T-cells at 33 μM of 1 h depoted lipo-GP100 after 3-day culture as measured by CFSE dilution with flow cytometry. Indicated values are percent CD8^+ T-cells that divided at least once. C) BMDCs were cultured with 20 ng/ml of GM-CSF for 7 days before harvested and either depoted with 33 μM of lipo-GP100 or pulsed with 33 μM of short GP100 (KVPRNQDWL) (SEQ ID NO: 2) peptide, along with resting B-cells. These modified APCs were co-cultured with pmel-1 GP100-specific CD8^+ T-cells for 3 days to determine pmel-1 T-cell proliferation by flow cytometry. n=1 independent experiment.
Antigen processing in APC B-cells by A) endocytosis, B) direct binding affinity on APC surface, or C) depoting. 33 uM of indicated GP100 antigen is conferred to APC B-cells for 1 h, then processed by B-cells in aforementioned antigen processing mechanisms for 0 h, 3 h, or 16 h, before B-cells are chemically fixed and cultured with cognate CD8^+ T-cells for 3 days to determine T-cell proliferation. n=1 independent experiment.
An diacyl (C18) lipid-conjugated ligands (lipo-ligands) was engineered that can be depoted into cell membranes in a time- and concentration-dependent fashion for precise and robust delivery up to 241.5±9.6 (mean±SD) fold increase compared to nondepoted cells. […] B) Representative histograms of fluorescein-labeled (FAM-labeled) lipo-GP100 fluorescence on B-cell surface as functions of depot time and lipo-GP100 concentration measured by flow cytometry. Median fluorescence intensity (MFI) of lipo-GP100 FAM fold increase on B-cells from non-depoted B-cells by flow cytometry. […]

Row | Substance | proliferative capacity of depoted T cells in the presence of tumor cells [1] | insertion into cell membranes (T-cells) | intracellular localisation by microscopy (T-cells; 24 h post-depoting) | B cell activation by depoted CD8+ T cells relative to continuous exposure control (bystander B cells (TLR2); 1:1 co-culture 3 d, CD86) | duration of trans signaling and activation of B cells by depoted CD8+ T cells (bystander B cells (TLR2); 1:1 co-culture, CD86) | activation of neighboring responder B cells by depoted T cells relative to soluble ligand (bystander B cells (TLR2); 2 days co-culture, 1:1 T cell:B cell ratio, depoted 1 h) | persistence of bystander-activating activity of depoted T cells (bystander B cells (TLR2); data not shown) | effect of depoting on CD8+ T cell proliferation in response to αCD3/28 beads (CD8+ T cells) | HIV latency reactivation ("shock") activity [2] | manner of antigen presentation by APC B-cells to cognate CD8+ T-cells (cognate CD8+ T-cells; 33 uM antigen 1 h, processed 0 h, 3 h or 16 h, fixed, 3-day culture) | B-cells as APCs versus BMDCs presenting antigen, MHCI-restricted (cognate CD8+ T-cells; 33 μM depoted, 3-day co-culture with pmel-1 CD8+ T-cells) | duration of antigen presentation from B-cells to cognate CD8+ T-cells (cognate CD8+ T-cells; GP100 25-33 antigen delivered by depoting)
1 | Pam2CSK4 | recovered proliferative capacity in the presence of tumor cells | can be rapidly inserted into cell membranes | colocalizing with early endosome antigen 1 (EEA1) | nearly matching continuously exposed control | 3 days | nearly equivalent to high doses of Pam2CSK4 in solution | persists for multiple days | did not |  |  |  | 
2 | Pam3CSK4 | recovered proliferative capacity in the presence of tumor cells | can be rapidly inserted into cell membranes |  |  |  |  |  |  | effective “shock” agent |  |  | 
3 | lipo-GP100: diacyl 18-carbon tails conjugated to a PEG linker plus melanoma antigen GP10025-33 (KVPRNQDWL) (SEQ ID NO: 2) (also: diacyl C18 lipid tails via PEG linker, site not given here) |  |  |  |  |  |  |  |  |  | delayed and prolonged manner | comparable to bone marrow derived cells (BMDCs) | > 16 h
